Data on seven compounds can be found in patent US6686358B2, “Bicyclic amino-pyrazinone compounds” (Les Laboratoires Servier, priority 2000, dated 2004).

The structures appear in SMILES notation. Where a name gives a salt, the structure may show the parent alone.

Format in all cases: biochemical
In one assay the target is T1, human thrombin (Homo sapiens, UniProt P00734).
T1 construct: purchased Sigma
Description: Inhibition of thrombin (fibrin formation from fibrinogen, 405 nm). Particulars: human thrombin 0.7 nM, fibrinogen substrate, 20° C., compared with control without product; read-out: concentration inhibiting the enzymatic activity of thrombin by 50% (IC50). The procedure: For in vitro evaluation of the inhibitory activity of the products of the invention on human thrombin (Sigma, specific activity 3230 NIH units/mg), purified human fibrinogen ([…], Stago) (Fg) was added to a given amount of thrombin (0.7 nM) that had previously been incubated with or without the inhibitor to be tested (20° C., 10 minutes).
Inhibitors, enzymes and substrates are diluted in the same buffer (0.01 mM phosphate buffer, pH 7.4, containing 0.12M sodium chloride and 0.05% bovine serum albumin) and then distributed in a polystyrene microtitre plate in a volume of 50 μl.
The fibrin formed by the thrombin or by the paranitroanilide released by the action of the serine protease is measured spectrophotometrically at 405 nm after from 15 to 30 minutes' reaction at 20° C.

In assay [1] the test system is human plasma samples (thrombin time). The experiment in a line: Anti-coagulant activity, thrombin time (TT) in human plasma. Particulars: concentration that doubles the thrombin time, 37° C. The procedure:
(§1) In order to evaluate the anti-coagulant activity of the compounds of the invention, the thrombin time (TT) and the activated cephalin time (ACT) were determined in human plasma samples. An ST4 coagulometer was used. A plasma deficient in platelets is lyophilised and taken up in distilled water. The TT is obtained using the reagent Thrombine Prest and the ACT is obtained using the reagent Céphaline PTT Automate. Inhibitor or solvent (10 μl) is added to the plasma (90 μl), which is then incubated for 2 minutes at 37° C. 100 μl of Thrombine Prest (TT) or of Céphaline PTT Automate (ACT) are added and at the same time the timer is started.
(§2) Under those conditions, the TT is of the order of 18 seconds and the ACT of the order of 12 seconds. The activity of an antagonist is evaluated by its capacity to prolong the TT and the ACT relative to the control. The effect of the inhibitors is expressed by the concentration in μM that doubles the coagulation time (Ctt2).

Assay [2] concerns human plasma samples (activated cephalin time). The experiment in a line: Anti-coagulant activity, activated cephalin time (ACT) in human plasma. Particulars: concentration that doubles the activated cephalin time, 37° C. The procedure: as §1, §2

With `O=C(NCc1ccccc1OCC1=NCCN1)[C@@H]1CCc2cnc(NCCc3ccccn3)c(=O)n21` [Example 15, (6S)-N-[2-(4,5-dihydro-1H-imidazol-2-ylmethoxy)benzyl]4-oxo-3-{[2-(2-pyridyl)ethyl]amino}-4,6,7,8-tetrahydropyrrolo[1,2-a]-pyrazine-6-carboxamide], on human thrombin, the IC50 turned out to be 12 nM. For the same compound, the “TT Ctt2” value in assay [1] stood at 0.19 µM. The “ACT Ctt2” value in assay [2] is 1.91 µM.

Regarding `NC(=NO)c1ccc(CNC(=O)[C@@H]2CCc3cnc(NCC(c4ccccc4)c4ccccc4)c(=O)n32)cc1` [Example 1, (6S)-N-{4-[amino(hydroxyimino)methyl]benzyl}-3-[(2,2-diphenyl-ethyl)amino]-4-oxo4,6,7,8-tetrahydropyrrolo[1,2-a]pyrazine-6-carboxamide], the IC50 at human thrombin was 141 nM.

Regarding `NC(=NO)c1ccc(CNC(=O)[C@@H]2CCc3cnc(NCCc4ccccn4)c(=O)n32)cc1` [Example 2, (6S)-N-{4-[amino(hydroxyimino)methyl]benzyl}-4-oxo-3-{(2-(2-pyridyl)ethyl]amino}-4,6,7,8-tetrahydropyrrolo[1,2-a]pyrazine-6-carboxamide], on human thrombin, the IC50 came out at 310 nM. Further, the “TT Ctt2” value in assay [1] is 3.6 µM. Further, the “ACT Ctt2” value in assay [2] is 20 µM.

Turning to `O=C(NCc1ccccc1OCc1ccccn1)[C@@H]1CCc2cnc(NCCc3ccccn3)c(=O)n21` [Example 10, (6S)-4-oxo-3-{[2-(2-pyridyl)ethyl]amino}-N-[2-(2-pyridylmethoxy)-benzyl]-4,6,7,8-tetrahydropyrrolo[1,2-a]pyrazine-6-carboxamide], the IC50 on human thrombin was determined as 136 nM.

On to `N=C(N)NOCCNC(=O)[C@@H]1CCc2cnc(NCC(c3ccccc3)c3ccccc3)c(=O)n21` [Example 3, (6S)-N-[2-({[amino(imino)methyl]amino}oxy)ethyl]-3-[(2,2-diphenyl-ethyl)amino]-4-oxo4,6,7,8-tetrahydropyrrolo[1,2-a]pyrazine-6-carboxamide dihydrochloride], for which, on human thrombin, the IC50 was determined as 4 nM.

As for `O=C(NCc1ccc2cc[nH]c2c1)[C@@H]1CCc2cnc(NCCc3ccccn3)c(=O)n21` [Example 18, (6S)-N-[1H-indol-6-ylmethyl)-4-oxo-3-{[2-(2-pyridyl)ethyl]amino}-4,6,7,8-tetrahydropyrrolo[1,2-a]pyrazine-6-carboxamide], the IC50 on human thrombin is 22 nM. Moreover, the “TT Ctt2” value in assay [1] was 0.28 µM. In addition, in assay [2], the “ACT Ctt2” value was 3.07 µM.

With `Nc1noc2cc(CNC(=O)[C@@H]3CCc4cnc(NCCc5ccccn5)c(=O)n43)ccc12` [Example 17], on human thrombin, the IC50 stood at 140 nM.
